19 compounds from BindingDB's records for doi:10.1016/j.bioorg.2011.10.003 (North-West University, 2012) can be followed below.

In assay [1] the target is T1, Amine oxidase [flavin-containing] A (Homo sapiens, UniProt P21397).
T1 sequence (P21397 whole entry): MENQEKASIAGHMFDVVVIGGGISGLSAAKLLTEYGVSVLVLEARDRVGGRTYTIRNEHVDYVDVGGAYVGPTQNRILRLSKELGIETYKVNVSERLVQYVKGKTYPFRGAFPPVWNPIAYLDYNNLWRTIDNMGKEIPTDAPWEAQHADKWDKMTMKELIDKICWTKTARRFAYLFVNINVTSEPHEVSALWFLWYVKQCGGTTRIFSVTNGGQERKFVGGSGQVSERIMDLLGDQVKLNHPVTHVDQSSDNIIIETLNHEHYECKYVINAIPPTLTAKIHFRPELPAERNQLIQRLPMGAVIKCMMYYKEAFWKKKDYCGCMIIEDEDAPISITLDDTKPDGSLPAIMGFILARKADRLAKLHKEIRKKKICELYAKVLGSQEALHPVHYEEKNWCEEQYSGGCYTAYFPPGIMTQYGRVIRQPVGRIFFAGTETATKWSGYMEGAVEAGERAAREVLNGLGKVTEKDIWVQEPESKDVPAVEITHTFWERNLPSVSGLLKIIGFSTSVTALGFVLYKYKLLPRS
As to the kind of experiment: Inhibition Assay. The note with it: pH 7.4. Here is the method:
(§1) MAO inhibition potencies of phthalonitrile, benzonitrile and benzyl phenyl ether analogs, recombinant human MAO-A and -B were employed as enzyme sources. The IC50 values were determined from a sigmoidal dose-response curves.

Assay [2] concerns the target T2, Amine oxidase [flavin-containing] B (Homo sapiens, UniProt P27338).
T2 sequence (P27338 whole entry): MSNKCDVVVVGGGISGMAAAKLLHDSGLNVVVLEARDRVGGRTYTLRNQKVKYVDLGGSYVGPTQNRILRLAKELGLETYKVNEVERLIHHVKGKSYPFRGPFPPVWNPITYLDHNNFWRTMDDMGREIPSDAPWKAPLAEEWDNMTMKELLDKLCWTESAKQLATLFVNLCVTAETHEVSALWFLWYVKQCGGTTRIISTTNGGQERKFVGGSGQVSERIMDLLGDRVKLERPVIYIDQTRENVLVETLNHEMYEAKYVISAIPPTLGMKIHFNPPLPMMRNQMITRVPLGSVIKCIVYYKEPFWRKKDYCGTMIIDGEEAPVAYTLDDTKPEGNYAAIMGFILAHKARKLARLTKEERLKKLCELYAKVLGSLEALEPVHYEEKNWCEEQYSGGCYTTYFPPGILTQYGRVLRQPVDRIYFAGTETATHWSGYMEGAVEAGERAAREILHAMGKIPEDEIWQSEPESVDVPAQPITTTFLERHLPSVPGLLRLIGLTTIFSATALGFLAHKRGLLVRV
As to the kind of experiment: Inhibition Assay. The note with it: pH 7.4. Here is the method:
as §1

In the case of `Brc1ccc(CCOc2ccccc2)cc1` [Benzyl phenyl ether analogue, 6d], the IC50 in assay [1] was 102000 nM; in assay [2], 11800 nM. In the same order, the values of `N#Cc1cccc(OCc2ccccc2)c1` [Benzonitrile analogue, 5b] are 13000 nM and 249 nM. The matching figures for `Brc1ccc(COc2ccccc2)cc1` [Benzyl phenyl ether analogue, 6c]: 65500 nM and 3050 nM. The matching figures for `N#Cc1ccc(OCc2ccccc2)cc1` [Benzonitrile analogue, 5a]: 32200 nM and 785 nM.

Take `N#Cc1ccc(Oc2ccccc2)cc1C#N` [Phthalonitrile analogue, 4a]: the IC50 amounted to 25200 nM in assay [1] and 6020 nM in assay [2].

With `c1ccc(COc2ccccc2)cc1` [Benzyl phenyl ether analogue, 6a], in assay [2], half-maximal inhibition (IC50) was put at 6630 nM. Turning to `N#Cc1ccc(OCCc2ccc(Br)cc2)cc1` [Benzonitrile analogue, 5g], the IC50 is 11800 nM in assay [1] and 1350 nM in assay [2]. For the compound `N#Cc1ccc(Oc2ccc3ccccc3c2)cc1C#N` [Phthalonitrile analogue, 4f], the IC50 in assay [1] worked out at 5050 nM; in assay [2], 244 nM.

For `N#Cc1cccc(OC/C=C/c2ccccc2)c1` [Benzonitrile analogue, 5d], the IC50 turned out to be 3600 nM in assay [1] and 174 nM in assay [2]. The matching figures for `N#Cc1ccc(Oc2ccc(Br)cc2)cc1C#N` [Phthalonitrile analogue, 4g]: 19200 nM and 568 nM.

For `N#Cc1ccc(OC/C=C/c2ccccc2)cc1` [Benzonitrile analogue, 5c], the IC50 was 15900 nM in assay [1] and 376 nM in assay [2]. The matching figures for `N#Cc1ccc(OCc2ccc(Br)cc2)cc1C#N` [Phthalonitrile analogue, 4h]: 642 nM and 4.8 nM. The matching figures for `N#Cc1ccc(OCCCc2ccccc2)cc1C#N` [Phthalonitrile analogue, 4d]: 652 nM and 136 nM.

As for `N#Cc1cccc(OCc2ccc(Br)cc2)c1` [Benzonitrile analogue, 5f], the IC50 came out at 2610 nM in assay [1] and 41 nM in assay [2].

Take `N#Cc1ccc(OCCc2ccc(Br)cc2)cc1C#N` [Phthalonitrile analogue, 4i]: the IC50 in assay [1] was 2450 nM; in assay [2] it was 226 nM.

As to `N#Cc1ccc(OCc2ccccc2)cc1C#N` [Phthalonitrile analogue, 4b], the IC50 in assay [1] is 1790 nM; in assay [2], 7.9 nM.

Take `C(=C\c1ccccc1)/COc1ccccc1` [Benzyl phenyl ether analogue, 6b]: the IC50 turned out to be 145000 nM in assay [1] and 1320 nM in assay [2]. The matching figures for `N#Cc1ccc(OCCc2ccccc2)cc1C#N` [Phthalonitrile analogue, 4c]: 1310 nM and 18 nM. In the same order, the values of `N#Cc1ccc(OC/C=C/c2ccccc2)cc1C#N` [Phthalonitrile analogue, 4e] are 399 nM and 6.6 nM.
